Data reported in patent publication US7910624B1, “Compositions for the treatment of blood disorders” (The Trustees of Boston University, priority 1995, dated 2011).

How the values were obtained:
[1] = tested on: anemic juvenile baboons; experiment: In vivo reticulocyte proliferation and globin expression in phlebotomized anemic baboons; design: species or system baboon
Method in brief: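 Juvenile female baboons, phlebotomized daily to hemoglobin 7.0-7.5 g/dl, received compounds sequentially with washout to baseline reticulocytes, each animal its own control. HbF-positive reticulocytes were counted by dual-antibody FACS. γ/(γ+β) globin synthesis ratio came from ^3H-leucine labeling and chromatographic chain separation, unadjusted for phlebotomy.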

[2] = tested on: erythroid cells (peripheral blood cells); experiment: Erythroid cell viability by Calcein-AM fluorescent staining (FIG. 2); assay type: cell-based
Method: Compositions were tested for the ability to directly stimulate erythroid cell growth. Cell growth stimulation is a useful property for an agent to be used to treat anemias and distinguishes such agents from the cytotoxic drugs currently being tested for treatment of hemoglobinopathies. Cell viability analyses were performed using fluorescent staining to detect living cells. Cells were in log phase of growth in 6-well dishes when used in proliferation assays. For enumeration of living cells, wells were washed once with medium to remove nonadherent or dead cells. Remaining live cells were labeled with 2 μM 2′,7′-bis-(carboxyethyl)-5-(and 6)-carboxy-fluorescein acetoxy-methyl ester (Calcein-AM) (Molecular Probes; Eugene, Oreg.) for 20 minutes at 37° C. and washed once. Fluorescence intensity of live cells was read on a CytoFluor 2300 Fluorescence Plate Scanner (Millipore; Bedford, Mass.) at excitation and emission wavelengths of 485 and 530 nm, respectively. The fluorescence intensity of a well was proportional to the number of living cells in the well. Background fluorescence was measured separately for each plate and subtracted from all readings. Each experiment was performed in triplicate or quadruplicate. The standard deviation (SD) of repetitive readings was less than 30% of the mean. Results are depicted in FIG. 2.

[3] = tested on: human erythroid cells; experiment: DNA fragmentation by flow cytometry (propidium iodide); assay type: cell-based; conditions: for effect in DNA fragmentation assays: summary statement
Method: (§1) Such activities might limit their utility for treatment of anemias such as occur in thalassemia, but alternatively would be useful for anticancer effects. To determine cell viability, human erythroid cells were cultured in the presence and absence of these compounds for 4 days and the amount of DNA fragmentation which occurred was measured.
Flow cytometric determination of DNA profiles and DNA fragmentation were determined. Cytometric analysis was performed with a FACScan (Becton Dickenson Instruments; Columbia, Md.). The data analysis and display were performed using the Cell-Fit software program. Approximately 0.5×10^6 cells were washed twice with PBS and resuspended in 1 ml of 1% sodium citrate, 0.1% Triton X-100 and […] of propidium iodide/ml. Resulting permeabilized cells were kept in the dark at 4° C. overnight before DNA profile or DNA fragmentation analysis (Table 4).

[4] = tested on: human erythroid cell line K562; experiment: Cell viability / growth of K562 by Calcein-AM fluorescence; assay type: cell-based; conditions: over 3 days
Method: as §1
Cell viability analyses were performed using fluorescent staining to detect living cells. Cells were in log phase of growth in 6-well dishes when used in proliferation assays. For enumeration of living cells, wells were washed once with medium to remove nonadherent or dead cells. Remaining live cells were labeled with Calcein-AM for 20 minutes at 37° C. and washed once. Fluorescence intensity of adherent live cells was read on a CytoFluor 2300 Fluorescence Plate Scanner (Millipore; Bedford, Mass.) at excitation and emission wavelengths of 485 and 530 nm, respectively. The fluorescence intensity of a well was proportional to the number of living cells in the well. Background fluorescence was measured separately for each plate and subtracted from all readings. Each experiment was performed in triplicate or quadruplicate. The standard deviation (SD) of repetitive readings was less than 30% of the mean.
At higher concentrations, still easily achievable in vivo, arginine butyrate (0.5 mM) and dihydrocinnamic acid (greater than 0.5 mM) inhibited growth of this tumor cell line by approximately 50%. Therefore, these compounds are also useful as anti-tumor agents.

[5] = tested on: Human erythroleukemia cells; experiment: Fetal globin mRNA in erythroleukemia cells by primer extension; assay type: cell-based; conditions: 1.0 mM, 4 days
Method: Compounds were tested for increased expression of the human globin genes in human erythroid cells. In addition, as the cell line being tested is a tumor cell line, the assay determines if differentiation, a growth inhibitory effect on cancer cells, is induced by the compounds tested. Human erythroleukemia cells were cultured in RPMI media with 10% fetal calf serum alone or with treatment with various compounds for 4 days. Globin mRNA was quantitated by primer extension analysis. Fetal globin mRNA was compared to the amount of fetal globin mRNA produced in untreated cells during the same culture period. The quantitation was expressed as a percent of alpha globin mRNA which was constant. Results are expressed proportional to α-globin mRNA (Table 3).

[6] = tested on: K562 cells; experiment: Dose response, total and viable cells by trypan blue exclusion (FIG. 3); assay type: cell-based, human; conditions: day 4
Method: FIG. 3 A FIG. 3E Cell viability as determined by the comparative numbers of total and viable K562 cells in the presence of increasing concentrations of (A) phenoxyacetic acid, (B) dihydrocinnamic acid, (C) butyric acid ethyl ester, (D) arginine butyrate, and (E) isobutyramide.
Dose response curves at dosages of up to 2.0 mM were also determined for phenoxyacetic acid (PAA; FIG. 3A), dihydrocinnamic acid (DHC; FIG. 3B), butyric acid ethyl ester (BAEE; FIG. 3C), arginine butyrate (AB; FIG. 3D) and isobutyramide (IBT; FIG. 3E). Cells were counted on day 4 of treatment and viable cells identified by trypan blue exclusion.

[7] = 1.0 mM to 2.0 mM, untreated cells 26%
[8] = 2.0 mM, 4 days, controls 26%, 22%
[9] = 1,000 to 1,500 mg/kg/day, 4 days

## CCCC(=O)O [AB, arginine butyrate]
[1]; 1,000 mg/kg for 5 days or 2,000 mg/kg for 3 days
  response of the same monkey: had not responded
[2]; 0.2 mM
  erythroid cell growth and proliferation compared to untreated controls (FIG. 2): inhibited proliferation
[2]; 0.5 mM
  erythroid cell growth and proliferation compared to untreated controls (FIG. 2): inhibited proliferation
[3]; 0.5 mM, 4 days, controls 26%, 22%
  Degraded DNA: 32%
[3]; [7]
  Degraded DNA: 44%
[3]; 1.0 mM, 4 days, controls 26%, 22%
  Degraded DNA: 34%
[3]; [8]
  Degraded DNA: 44%
[3]
  effect in DNA fragmentation assays: decrease cell viability
[4]; 0.2 mM
  growth of K562: either did not inhibit, or slightly enhanced growth
[5]
  induction of fetal globin mRNA in human cells: significantly increased
[6]; concentrations above 0.2 mM
  cell growth (dose response, FIG. 3): suppressed cell growth

## O=C(O)COc1ccccc1 [PAA, Phenoxyacetic acid]
[1]; 1,500 mg/kg each day, 5 days
  time the effect maintained itself after drug was discontinued: two days
[1]; 1,500 mg/kg each day, 5 days, from 1.9%
  reticulocytes after treatment: 9.2 % of all red blood cells
[1]; 1,500 mg/kg each day, 5 days, from 6.9
  white blood cell count after treatment: 9.5 ×10^3 cells/μl
[1]; 1,500 mg/kg each day, 5 days, from 22%
  packed red blood cell volume after treatment: 25.4%
[1]; [9]
  fetal reticulocytes, fold above baseline: eight-fold
  fetal reticulocytes, percent above baseline: 800%
  increase in output of fetal globin production over basal levels: 4,000%
[1]; 1,000 to 1,500 mg/kg/day, 4 days, from 0%
  fetal globin protein synthesis after treatment: 5%
[1]; another juvenile baboon, intravenous 1,000 to 1,500 mg/kg/day, 4 days, from 2%
  fetal reticulocytes after treatment: 16%
[1]; infused 1,500 mg/kg each day, 5 days (FIG. 7), from 6.8
  total hemoglobin after treatment: 7.6 grams/dl
[1]; infused 5 days, 500, 1,000 and 1,500 mg/kg (8 hours each), after 3 days (FIG. 9), from 12%
  proportion of fetal reticulocytes on treatment: 27%
[2]; 0.5 mM
  erythroid cell growth and proliferation compared to untreated controls (FIG. 2): either had no effect or stimulated erythroid cell growth and proliferation
[3]; [7]
  Degraded DNA: 20.6%
[3]; [8]
  Degraded DNA: 20.6%
[3]
  effect in DNA fragmentation assays: reduce DNA fragmentation
[4]; 0.5 mM
  growth of K562: either did not inhibit, or slightly enhanced growth
[5]
  induction of fetal globin mRNA in human cells: significantly increased
[5]; untreated 0.46
  Gamma/Alpha (fetal globin mRNA proportional to α-globin mRNA): 0.70
[5]; versus untreated
  Gamma Globin mRNA (increase ↑): 24% ↑
[6]; up to 2.0 mM
  proliferation (dose response, FIG. 3): did not significantly inhibit proliferation
